Earlier results, collected in patent US20060074100A1, “Histone deacetylase inhibitors for the treatment of ocular neovascular or edematous disorders and diseases” (priority 2002, published 2006).

What was measured:
[1] = tested on: corneal neovascularization; conditions: in combination with a beta cyclodextrin
cancer cell [2] = conditions: in vitro
cancer cell [3] = tested on: cancer cell
[4] = phase I clinical trials
tumors = conditions: animal models

In the case of `C[C@]12CC[C@@H](O)C[C@H]1CC[C@@H]1[C@@H]2CC[C@@]2(C)[C@H]1CC[C@]2(O)C(=O)CO` [tetrahydrocortisol-S], the “inhibition of corneal neovascularization” value [1] is listed as “inhibit corneal neovascularization”.

For `C[C@@H]1C[C@H]2[C@@H]3C[C@H](F)C4=CC(=O)CC[C@]4(C)C3=CC[C@]2(C)[C@@]1(O)C(=O)CO` [U-72,745G], the “inhibition of corneal neovascularization” value [1] is given as “inhibit corneal neovascularization”.

For `C[C@]12CCC(=O)C=C1CC[C@@H]1[C@@H]2[C@@H](O)C[C@@]2(C)[C@H]1CC[C@]2(O)C(=O)CO` [hydrocortisone], the “inhibition of corneal neovascularization” value [1] is given as “inhibit corneal neovascularization”.

In the case of `O=C(CCCCCCC(=O)Nc1ccccc1)NO` [SAHA, suberoylanilide hydroxamic acid], the cancer cell growth (cancer cell [2]) is given as “arrest cancer cell growth in vitro”, the “induction of cancer cell differentiation” value (cancer cell [3]) is given as “potent inducer of cancer cell differentiation” and the dose-limiting toxicity [4] is given as “almost no dose-limiting toxicity”. The “suppression of white blood cell production” value [4] was “no suppression of white blood cell production” and the tumor size (tumors) was “shrink tumors in animal models”.
